Columns and labels:
P450 1A2 [1] = target: T1, P450 1A2 (Homo sapiens, UniProt P05177); experiment: Inhibition of P450 1A2-dependent EROD activity; type: biochemical
T1 sequence (P05177 1-516): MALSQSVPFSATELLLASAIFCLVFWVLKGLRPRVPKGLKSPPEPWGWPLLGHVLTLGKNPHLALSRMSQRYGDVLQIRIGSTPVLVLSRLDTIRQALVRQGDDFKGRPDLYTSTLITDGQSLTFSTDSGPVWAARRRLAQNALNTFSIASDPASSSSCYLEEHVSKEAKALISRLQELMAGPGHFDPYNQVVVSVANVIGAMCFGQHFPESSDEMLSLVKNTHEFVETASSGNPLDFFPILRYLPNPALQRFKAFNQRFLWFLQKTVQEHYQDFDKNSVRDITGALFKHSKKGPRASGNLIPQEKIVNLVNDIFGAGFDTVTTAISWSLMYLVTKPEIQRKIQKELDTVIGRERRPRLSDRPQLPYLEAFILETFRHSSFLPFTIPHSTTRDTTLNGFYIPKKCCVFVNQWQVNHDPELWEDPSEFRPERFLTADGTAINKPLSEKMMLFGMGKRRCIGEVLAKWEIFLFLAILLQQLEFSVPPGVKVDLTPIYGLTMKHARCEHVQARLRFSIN

P450 2A13 [2] = target: T2, P450 2A13 (Homo sapiens, UniProt Q16696); experiment: Spectral binding titration with purified recombinant P450 2A13; conditions: for ΔAmax/Ks / ΔAmax: Type I binding, 1 µM P450; for ΔAmax: means ± SE
T2 sequence (Q16696 1-494): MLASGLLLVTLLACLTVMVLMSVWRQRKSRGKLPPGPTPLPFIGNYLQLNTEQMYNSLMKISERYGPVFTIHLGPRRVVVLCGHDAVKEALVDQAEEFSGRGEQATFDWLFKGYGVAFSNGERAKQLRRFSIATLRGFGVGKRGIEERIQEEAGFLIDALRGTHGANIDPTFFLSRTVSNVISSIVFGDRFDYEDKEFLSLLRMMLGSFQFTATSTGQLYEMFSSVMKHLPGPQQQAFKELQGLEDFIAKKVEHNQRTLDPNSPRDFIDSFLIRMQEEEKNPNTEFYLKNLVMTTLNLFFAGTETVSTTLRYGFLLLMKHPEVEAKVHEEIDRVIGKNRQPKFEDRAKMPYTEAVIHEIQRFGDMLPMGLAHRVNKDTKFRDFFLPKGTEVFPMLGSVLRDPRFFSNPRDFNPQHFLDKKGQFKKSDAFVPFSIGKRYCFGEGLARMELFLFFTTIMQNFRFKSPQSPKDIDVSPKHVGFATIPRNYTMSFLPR

P450 2A6 [3] = target: T3, P450 2A6 (Homo sapiens, UniProt P11509); experiment: Spectral binding titration with purified recombinant P450 2A6; conditions: for ΔAmax/Ks / ΔAmax: Type I binding, 1 µM P450; for ΔAmax: means ± SE
T3 sequence (P11509 1-494): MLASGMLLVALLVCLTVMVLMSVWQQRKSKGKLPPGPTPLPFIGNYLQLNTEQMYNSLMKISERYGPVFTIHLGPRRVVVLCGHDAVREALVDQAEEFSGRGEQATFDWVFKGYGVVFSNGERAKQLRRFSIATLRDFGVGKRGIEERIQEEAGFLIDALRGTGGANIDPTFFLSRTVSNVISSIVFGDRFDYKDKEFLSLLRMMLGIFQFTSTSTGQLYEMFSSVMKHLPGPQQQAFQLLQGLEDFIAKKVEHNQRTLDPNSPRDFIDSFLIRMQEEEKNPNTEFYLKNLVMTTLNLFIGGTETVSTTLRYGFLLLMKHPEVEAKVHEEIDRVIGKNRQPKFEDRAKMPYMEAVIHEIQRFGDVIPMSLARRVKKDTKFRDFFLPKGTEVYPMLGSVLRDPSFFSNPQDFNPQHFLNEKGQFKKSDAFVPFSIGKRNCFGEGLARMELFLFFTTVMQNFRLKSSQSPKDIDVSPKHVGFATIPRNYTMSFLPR

P450 1B1 [4] = target: T4, P450 1B1 (Homo sapiens, UniProt Q16678); experiment: Inhibition of P450 1B1-dependent EROD activity; type: biochemical
T4 sequence (Q16678 1-543): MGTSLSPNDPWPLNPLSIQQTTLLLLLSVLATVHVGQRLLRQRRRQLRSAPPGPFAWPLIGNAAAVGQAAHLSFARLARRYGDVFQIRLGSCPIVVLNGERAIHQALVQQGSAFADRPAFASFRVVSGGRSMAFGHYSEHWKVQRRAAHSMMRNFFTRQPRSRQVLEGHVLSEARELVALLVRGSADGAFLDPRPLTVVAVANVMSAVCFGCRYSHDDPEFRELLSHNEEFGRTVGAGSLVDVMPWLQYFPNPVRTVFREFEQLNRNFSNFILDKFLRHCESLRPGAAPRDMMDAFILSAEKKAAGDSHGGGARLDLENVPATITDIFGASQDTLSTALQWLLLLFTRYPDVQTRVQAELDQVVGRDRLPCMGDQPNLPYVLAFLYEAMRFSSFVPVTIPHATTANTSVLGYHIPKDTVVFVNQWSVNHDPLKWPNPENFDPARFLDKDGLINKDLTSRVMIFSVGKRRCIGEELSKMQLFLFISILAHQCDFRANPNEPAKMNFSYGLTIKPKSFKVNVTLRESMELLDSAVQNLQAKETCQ

P450 2A6 [5] = target: T3, P450 2A6; experiment: Inhibition of P450 2A6-dependent coumarin 7-hydroxylation; type: biochemical
P450 1A1 [6] = target: T5, P450 1A1 (Homo sapiens, UniProt P04798); experiment: Inhibition of P450 1A1-dependent EROD activity; type: biochemical
T5 sequence (P04798 1-512): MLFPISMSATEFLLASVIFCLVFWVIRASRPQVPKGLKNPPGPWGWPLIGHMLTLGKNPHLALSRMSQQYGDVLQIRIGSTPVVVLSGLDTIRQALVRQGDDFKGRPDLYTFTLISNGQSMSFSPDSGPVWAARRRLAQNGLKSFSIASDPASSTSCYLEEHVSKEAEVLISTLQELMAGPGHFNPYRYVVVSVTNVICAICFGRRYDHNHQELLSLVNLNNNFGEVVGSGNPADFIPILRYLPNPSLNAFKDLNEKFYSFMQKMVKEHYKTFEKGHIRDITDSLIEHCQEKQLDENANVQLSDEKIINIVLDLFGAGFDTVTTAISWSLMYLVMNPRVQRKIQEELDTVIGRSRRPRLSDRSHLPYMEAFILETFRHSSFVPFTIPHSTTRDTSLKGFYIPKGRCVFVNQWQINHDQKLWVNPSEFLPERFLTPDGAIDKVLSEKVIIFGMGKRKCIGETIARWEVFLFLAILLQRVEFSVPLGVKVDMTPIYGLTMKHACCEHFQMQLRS

P450 1A2 [7] = target: T1, P450 1A2; experiment: Spectral binding titration with purified recombinant P450 1A2; conditions: for ΔAmax/Ks / ΔAmax: Reverse Type I binding, 1 µM P450; for ΔAmax: means ± SE
P450 2A13 [8] = target: T2, P450 2A13; experiment: Inhibition of P450 2A13-dependent coumarin 7-hydroxylation; type: biochemical
P450 1B1 [9] = target: T4, P450 1B1; experiment: Spectral binding titration with purified recombinant P450 1B1; conditions: for ΔAmax/Ks / ΔAmax: Reverse Type I binding, 1 µM P450; for ΔAmax: means ± SE
P450 1A1 [10] = target: T5, P450 1A1; experiment: Spectral binding titration with purified recombinant P450 1A1; conditions: for ΔAmax/Ks / ΔAmax: Reverse Type I binding, 1 µM P450; for ΔAmax: means ± SE
[11] = rats; cited from earlier work

N#C[Se]Cc1ccccc1C[Se]C#N [o-XSC, 1,2-phenylenebis(methylene)selenocyanate]
IC50 (P450 1A2 [1]): 390 ± 42 nM | Kd (P450 2A13 [2]): 750 ± 44 nM | ΔAmax/Ks (P450 2A13 [2]): 92.00 × 10^−3 | ΔAmax (P450 2A13 [2]): 69 ± 0.49 × 10^−3 | Kd (P450 2A6 [3]): 5100 ± 450 nM | ΔAmax/Ks (P450 2A6 [3]): 7.80 × 10^−3 | ΔAmax (P450 2A6 [3]): 40 ± 0.82 × 10^−3 | IC50 (P450 1B1 [4]): 140 ± 27 nM | IC50 (P450 2A6 [5]): 2700 ± 340 nM | IC50 (P450 1A1 [6]): 110 ± 21 nM | ΔAmax/Ks (P450 1A2 [7]): 0.38 × 10^−3 | ΔAmax (P450 1A2 [7]): 2.4 ± 0.20 × 10^−3 | IC50 (P450 2A13 [8]): 1200 ± 130 nM | Kd (P450 1B1 [9]): 4600 ± 750 nM | ΔAmax/Ks (P450 1B1 [9]): 3.30 × 10^−3 | ΔAmax (P450 1B1 [9]): 15 ± 0.51 × 10^−3 | Kd (P450 1A1 [10]): 26000 ± 4600 nM | ΔAmax/Ks (P450 1A1 [10]): 0.77 × 10^−3 | ΔAmax (P450 1A1 [10]): 20 ± 1.2 × 10^−3

N#C[Se]Cc1ccc(C[Se]C#N)cc1 [p-XSC, 1,4-phenylenebis(methylene)selenocyanate]
IC50 (P450 1A2 [1]): 630 ± 59 nM | Kd (P450 2A13 [2]): 1500 ± 280 nM | ΔAmax/Ks (P450 2A13 [2]): 46.00 × 10^−3 | ΔAmax (P450 2A13 [2]): 69 ± 2.6 × 10^−3 | Kd (P450 2A6 [3]): 14000 ± 1900 nM | ΔAmax/Ks (P450 2A6 [3]): 2.20 × 10^−3 | ΔAmax (P450 2A6 [3]): 31 ± 1.2 × 10^−3 | IC50 (P450 1B1 [4]): 160 ± 9 nM | IC50 (P450 2A6 [5]): 6200 ± 550 nM | IC50 (P450 1A1 [6]): 260 ± 31 nM | Kd (P450 1A2 [7]): 12000 ± 1200 nM | ΔAmax/Ks (P450 1A2 [7]): 0.81 × 10^−3 | ΔAmax (P450 1A2 [7]): 9.7 ± 0.40 × 10^−3 | IC50 (P450 2A13 [8]): 1400 ± 210 nM | Kd (P450 1B1 [9]): 3600 ± 330 nM | ΔAmax/Ks (P450 1B1 [9]): 5.83 × 10^−3 | ΔAmax (P450 1B1 [9]): 21 ± 0.48 × 10^−3 | Kd (P450 1A1 [10]): 19000 ± 1600 nM | ΔAmax/Ks (P450 1A1 [10]): 0.45 × 10^−3 | ΔAmax (P450 1A1 [10]): 8.6 ± 0.24 × 10^−3

N#C[Se]Cc1ccc(C[Se]C#N)cc1 [p-[^14C]XSC, 1,4-[^14C]phenylenebis(methylene)selenocyanate]
cumulative percentage of radioactivity excreted in feces [11]: 75% | cumulative percentage of radioactivity excreted in urine [11]: 24%

— article PMC3156385 (Chemical research in toxicology, 2011)
